The source of these data is patent US20260027065A1, “LIVER/ADIPOSE TISSUE DUAL-TARGETING COMPOSITE NANO-DRUG CARRIER” (IUCF-HYU (INDUSTRY-UNIVERSITY COOPERATION FOUNDATION …, priority 2022, published 2026).

The assay relates to animal models of obesity-induced type 2 diabetes. The experiment in a line: Treatment effect (body weight, insulin resistance, biomarkers), type 2 diabetes model. The format is in vivo, C57BL/6J mice. Conditions: ZnPP 0.25 mg/kg i.p. once a week for 4 weeks together with HO-1 inducer-encapsulated ATS/PLGA NPs 1 mg/kg i.v.; FIG. 9. The procedure: C57BL/6J mice were purchased from Orient Bio Inc. and acclimated for one week. From week 3, a 60% kcal high fat diet (HFD, Central Lab Animal, Inc.) was mixed with normal diet and fed. From week 6, only HFD was fed, and HFD was additionally fed for 8 weeks. In week 20, it was confirmed that the body weight reached 45 to 55 g, and the fasting blood glucose level also exceeded 250 mg/dl.
After constructing the animal models of obesity-induced type 2 diabetes and the animal models of obesity-induced non-alcoholic steatohepatitis, ATS/PLGA NPs in which 1 mg/kg of heme oxygenase-1 inducer was encapsulated were injected intravenously once a week for 4 weeks. Here, the results of a control administered intravenously with ATS/PLGA NPs (vehicle) in which 1 mg/kg of heme oxygenase-1 inducer was not encapsulated once a week for 4 weeks and a control administered intraperitoneally with 0.25 mg/kg of heme oxygenase-1 inhibitor (ZnPP) once a week for 4 weeks while intravenous administration with ATS/PLGA NPs in which 1 mg/kg of heme oxygenase-1 inducer was encapsulated once a week for 4 weeks were compared. The body weight was measured for 7 weeks, and then the mice were dissected to obtain mRNA and proteins from major organs such as the liver and adipose tissue for biomarker analysis.

As to `C=CC1=C(C)c2cc3[n-]c(cc4[n-]c(cc5nc(cc1n2)C(C)=C5C=C)c(C)c4CCC(=O)O)c(CCC(=O)O)c3C.[Zn+2]` [ZnPP], the “Effect on body weight with co-administered HO-1 inhibitor” value was “no effect”.
